Values of other authors as cited in patent publication US20180092930A1, “METHODS OF DIAGNOSING AND TREATING ABIRATERONE ACETATE- GLUCOCORTICOID -RESISTANT OR -SENSITIVE METASTATIC CASTRATION RESISTANT PROSTATE CANCER” (Janssen Pharmaceutica NV, priority 2016, published 2018).
Read-outs that look alike come from different tables or passages of the source.

Assays:
[1] = test system: castration-resistant prostate cancer
CRPC = conditions: pooled patients treated with AA or enzalutamide

Structure (SMILES)	PSA response rate ([1]; ARV7-negative patients) [%]	PSA-PFS, median ([1]; ARV7-negative patients)	clinical or radiographic progression-free survival, median ([1]; ARV7-negative patients)	overall survival, median ([1]; ARV7-negative patients)	PSA response rate ([1]; ARV7-positive patients) [%]	PSA-PFS, median ([1]; ARV7-positive patients) [months]	clinical or radiographic progression-free survival, median ([1]; ARV7-positive patients) [months]	overall survival, median ([1]; ARV7-positive patients) [months]	OS (CRPC; ARV7+ at baseline) [months]	OS (CRPC; ARV7- at baseline)
CC(=O)O[C@H]1CC[C@@]2(C)C(=CC[C@@H]3[C@@H]2CC[C@]2(C)C(c4cccnc4)=CC[C@@H]32)C1 [abiraterone acetate]	68	not reached	not reached	not reached	0	1.3	2.3	10.6	8	not reached
CNC(=O)c1ccc(N2C(=S)N(c3ccc(C#N)c(C(F)(F)F)c3)C(=O)C2(C)C)cc1F [enzalutamide]									8	not reached
